Values of other authors, collected in US9636304B2, “Pharmaceutical composition comprising citrate and bicarbonate salts, and use thereof for treating cystinuria” (ADVICENNE, priority 2010, dated 2017).

Conditions: prior art, oral

SMILES: O=C([O-])CC(O)(CC(=O)[O-])C(=O)[O-].[K+].[K+].[K+] [potassium citrate]
- gastric tolerance: mediocre
